Measurements from patent US8927569.

Settings: from C=CCC(C)(C)COC(=O)N[C@H](C(=O)N1C[C@H](Oc2cc(=O)[nH]c3cc(OC)c(C=C)cc23)C[C@H]1C(=O)OC)C1CCCCC1; rcm bond; Zhan 1b catalyst; DCM; 5.0 mM; 40.0 °C; 32.0 h

COC(=O)[C@@H]1C[C@@H]2CN1C(=O)[C@H](C1CCCCC1)NC(=O)OCC(C)(C)C/C=C/c1cc3c(cc(=O)[nH]c3cc1OC)O2
ring closure, yield of all isomers: 99%
